Assay results: US11549134B2, “Modified amadoriase and method for producing the same, agent for improving surfactant resistance of amadoriase and composition for measuring HbA1c using the same” (Kikkoman Corporation, priority 2013, dated 2023)

System: CFP-T7
Assay: Surfactant resistance of amadoriase during addition of each stabilizer (CFP-T7)
Format: biochemical, genus Coniochaeta
Conditions: 500 mM HEPES (pH 7.0), 0.01% CTAC; for CFP-T7 Residual Activity (%): Table 9-2
Procedure: In the above surfactant resistance measuring method, various stabilizers are added and the residual activity of an amadoriase is measured in order to evaluate the effect of the stabilizers. […] The concentration sufficient to provide a buffer capacity to a solution refers to the concentration at which pH is maintained within a predetermined range (for example pH5 to 10, pH6 to 8) without having pH change due to other reagents added to the solution. A concentration insufficient to provide a buffer capacity to a solution refers to the concentration at which pH changes by addition of other reagents to the solution and pH falls outside a particular range. These concentrations vary depending upon the type and amount of other reagents to be added to a solution; however, a person skilled in the art can appropriately determine the concentration by conventional methods. Other conditions and procedure can be the same as in the above surfactant resistance measuring method.
It was studied whether or not the addition of any of various stabilizers enhanced the surfactant resistance of an amadoriase. Phosphoric acid, a tricarboxylic acid (e.g., citric acid), a dicarboxylic acid (e.g., malic acid, maleic acid, citraconic acid, malonic acid, glutaric acid, or tartaric acid), a monpcarboxylic acid (e.g., acetic acid), MES, MOPS, MOPSO, or ammonium sulfate was used as a stabilizer. As a Comparative Example, CHES was used. To prevent change in pH when adding the stabilizer, 500 mM HEPES (pH 7.0) was used as a buffer solution; CFP-T7 purified as described above was used as a sample; the final concentration of CTAC was set at 0.01%; and any of the stabilizers was further added to evaluate the surfactant resistance of CFP-T7 according to the measurement method for surfactant resistance in Example 1. Using a 500 mM HEPES (pH 7.0) buffering agent and CFP-D2 purified as described above as a sample, any of the stabilizers was further added, and the surfactant resistance of CFP-D2 was evaluated according to the measurement method for surfactant resistance in Example 1 although under more harsh surfactant treatment conditions in which the final concentration of CTAC was set at 0.08% and the treatment temperature at 37° C.

| Compound | stabilizing action of the stabilizer (in words) (CFP-T7) | CFP-T7 Residual Activity (%) (Stabilizer 20 mM) | CFP-T7 Residual Activity (%) (Stabilizer 2 mM) | CFP-T7 Residual Activity (%) (Stabilizer 10 mM) |
| --- | --- | --- | --- | --- |
| O=S(=O)(O)CCNC1CCCCC1 [CHES, N-cyclohexyl-2-aminoethane sulfonic acid, reference compound] | did not have any stabilizing action | 3.0% |  |  |
| C/C(=C/C(=O)O)C(=O)O [Citraconate, citraconic acid] |  |  | 18.5% | 89.1% |
| O=C(O)CCCC(=O)O [Glutarate, glutaric acid] |  |  | 4.5% | 55.9% |
| O=S(=O)(O)CC(O)CN1CCOCC1 (centres unmarked) [MOPSO, 2-hydroxy-3-morpholino-propanesulfonic acid] |  | 23.5% |  | 9.0% |
| O=C(O)/C=C\C(=O)O [Maleate, maleic acid] |  |  | 15.5% | 81.5% |
| O=C(O)CC(=O)O [Malonate, malonic acid] |  |  | 10.8% | 77.3% |
| O=C(O)C(O)C(O)C(=O)O (centres unmarked) [Tartrate, tartaric acid] |  |  | 5.3% | 70.0% |
